Data set [1] concerns the target human recombinant serotonin 5-HT2A receptor (Homo sapiens, UniProt P28223). As to the kind of experiment: Aequorin functional assay, serotonin 5-HT2A (CHO-K1). Type of data set: cell-based. The arrangement: host or cells: CHO-K1 cells co-expressing mitochondrial apoaequorin and Gα16. From the text:
(§1) To study the functional activity of compounds of the invention on the human recombinant dopamine D2L with Aequorin, GTPγS and cAMP functional assays and on the human recombinant serotonin 5-HT2A receptor with Aequorin, CHO-K1 cell lines expressing D2L or 5-HT2A recombinant receptor, mitochondrial apoaequorin and Gα16 were used for the Aequorin assay. CHO-K1 cell line expressing the recombinant D2L receptor was used for the cAMP assay and was amplified to prepare membranes used for the GTPγS assay.
Cells were incubated at room temperature for at least 4 h with Coelenterazine h (Molecular Probes). Dose response curves with reference compounds were performed before testing the compounds of the invention. D2L reference agonist and antagonist were quinpirol (Tocris, 1061) and haloperidol (Tocris, 0931), respectively. […] For agonist testing, 50 μL of cell suspension were injected on 50 μL of test compound or reference agonist plated in a 96-well plate. The resulting emission of light was recorded using the Hamamatsu Functional Drug Screening System 6000 (FDSS 6000). Following an incubation of 15 min after the first injection, 100 μL of reference agonist at a concentration corresponding to its EC80 was injected on the 100 μL of the mixture of cell suspension and test compound, for antagonist testing. The resulting emission of light was recorded using the same luminometer as for agonist testing. To standardize the emission of recorded light (determination of the “100% signal”) across plates and across different experiments, some of the wells contained 100 μM digitonin or a saturating concentration of ATP (20 μM). Plates also contained the reference agonist at a concentration equivalent to the EC100 and EC80 obtained during the test validation.

For data set [2], the target named is human dopamine D2L receptor (Homo sapiens, UniProt P14416). As to the kind of experiment: cAMP functional assay, dopamine D2L (CHO-K1, HTRF). Type of data set: cell-based. The arrangement: host or cells: CHO-K1 co-expressing mitochondrial apoaequorin and Gα16. To be noted: for inhibition at 0.005 µM: antagonist concentration 5 nM; for inhibition at 0.05 µM: antagonist concentration 50 nM; for inhibition at 0.5 µM: antagonist concentration 500 nM; for inhibition at 5 µM: antagonist concentration 5000 nM; for inhibition at 15 µM: antagonist concentration 15000 nM.
human dopamine D2L receptor, sequence (P14416 whole entry): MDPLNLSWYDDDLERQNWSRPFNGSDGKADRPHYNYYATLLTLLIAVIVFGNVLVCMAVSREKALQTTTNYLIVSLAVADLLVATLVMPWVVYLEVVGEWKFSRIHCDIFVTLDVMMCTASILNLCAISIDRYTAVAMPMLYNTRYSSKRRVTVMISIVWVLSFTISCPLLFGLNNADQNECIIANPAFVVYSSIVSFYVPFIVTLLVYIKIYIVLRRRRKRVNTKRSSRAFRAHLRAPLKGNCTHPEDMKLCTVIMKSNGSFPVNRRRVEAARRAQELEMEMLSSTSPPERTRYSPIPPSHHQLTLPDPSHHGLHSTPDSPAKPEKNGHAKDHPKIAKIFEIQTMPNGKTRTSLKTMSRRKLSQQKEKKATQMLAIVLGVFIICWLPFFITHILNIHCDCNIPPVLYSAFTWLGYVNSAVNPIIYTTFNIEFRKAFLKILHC
From the text: as §1
The test was performed in 96 well plates. For agonist testing, 12 μL of cells (2,500 cells/well) were mixed with 6 μL of increasing concentrations of test compound or reference agonist and 6 μL of Forskolin […] (Calbiochem, cat n^o 344270). For antagonist testing, 12 μL of cells (2,500 cells/well) were mixed with 6 μL of test compound or reference antagonist at increasing concentrations. After incubation of 10 min at room temperature, 6 μL of a mix of Forskolin […] final concentration and the reference agonist at a final concentration corresponding to the EC80 were added. The plates were then incubated for 30 min at room temperature.

Another data set relates to Sprague Dawley rats. As to the kind of experiment: Subchronic PCP-induced social interaction deficits. In kind it is in vivo, rat. The text has this:
Phencyclidine (PCP) administered to humans as well to experimental animals induces full-spectrum of schizophrenia symptoms, including negative symptoms and cognitive deficits. A major symptom of schizophrenia is considered to be social isolation/withdrawal as part of the cluster of negative symptoms. Subchronic treatment with PCP in rats leads to the development of clear signs of social withdrawal as measured by deficits in the interaction time with a cage intruder rat.
Male Sprague Dawley rats (˜150 g on arrival) from Harlan (Indiana) were used in this study. Upon receipt, rats were group housed in OPTI rats ventilated cages. Rats were housed in groups of 2-3/cage for the remainder of the study. During the period of acclimation, rats were examined on a regular basis, handled, and weighed to assure adequate health and suitability. Rats were maintained on a 12/12 light/dark cycle with the light on at 7:00 a.m. The room temperature was maintained between 20 and 23° C. with a relative humidity maintained between 30% and 70%. Chow and water were provided ad libitum for the duration of the study. Animals were randomly assigned across treatment groups and balanced by age. Animals were not disturbed between test days.
The following compounds were used. 1) Compound No. 88 or 90 (0.3, 1 and 3 mg/kg; p.o.) was dissolved in 3% Tween and PBS and administered 30 min prior to test; 2) PCP (2 mg/kg; s.c.) was dissolved in saline and administered twice daily for 5 days prior to test day; 3) Clozapine (2.5 mg/kg; i.p.) was dissolved in 5% PEG:5% Tween 80 in saline and administered 30 min. prior to test. All compounds were administered at a dose volume of 1 mL/kg.
For five days prior to test, rats were injected twice daily with either PCP (2 mg/kg; s.c) or saline (s.c). On day 6 and following a 30 min pretreatment with vehicle, clozapine or Compound No. 90, a pair of rats, unfamiliar to each other, receiving the same treatment were placed in a white plexiglas open field arena (24″×17″×8″) and allowed to interact with each other for 6 min. Social interactions (‘SI’) included: sniffing the other rat; grooming the other rat; climbing over or under or around the other rat; following the other rat; or exploring the ano-genital area of the other rat. Passive contact and aggressive contact were not considered a measure of social interaction. The time the rats spent interacting with each other during the 6 min test was recorded by a trained observer. The social interaction chambers were thoroughly cleaned between the different rats.
Data were analyzed by analysis of variance (ANOVA) followed by post-hoc analysis (e.g., Fischer, Dunnett) when appropriate. An effect was considered significant if p<0.05.

[3] abbreviates: CHO-K1, read-out: 5-HT2A Antagonist % Inhibition (Aequorin).
Setting [4] is: antagonist concentration 150 nM.
The mark [5] stands for this setting: antagonist concentration 1500 nM.

Like-named read-outs stand apart in the source and are kept apart here.

From US8906925B2, “Pyrido[4,3-B]indoles containing rigid moieties” (Medivation Technologies, Inc., priority 2008, dated 2014) come the findings set out here.

For orientation: inhibition means the change of the read-out against control, counted positive when it falls.

human recombinant serotonin 5-HT2A receptor, sequence (P28223 whole entry): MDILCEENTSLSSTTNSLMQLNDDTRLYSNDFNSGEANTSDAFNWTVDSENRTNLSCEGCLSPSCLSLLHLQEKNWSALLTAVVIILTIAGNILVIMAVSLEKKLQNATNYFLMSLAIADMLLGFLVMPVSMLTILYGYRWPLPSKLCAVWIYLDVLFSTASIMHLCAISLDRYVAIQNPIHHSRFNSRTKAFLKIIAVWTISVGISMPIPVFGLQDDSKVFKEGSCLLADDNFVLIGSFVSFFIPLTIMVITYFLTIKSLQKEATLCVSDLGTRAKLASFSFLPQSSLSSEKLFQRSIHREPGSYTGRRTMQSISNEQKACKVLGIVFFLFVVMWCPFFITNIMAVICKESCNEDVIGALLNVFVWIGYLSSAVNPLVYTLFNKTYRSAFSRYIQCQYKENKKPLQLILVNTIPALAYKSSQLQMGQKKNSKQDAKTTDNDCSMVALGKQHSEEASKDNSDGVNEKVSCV

Take `C/C(=C\n1c2c(c3cc(Cl)ccc31)CN(C)CC2)c1ccncc1` [Compound 90, (E)-8-chloro-2,3,4,5-tetrahydro-2-methyl-5-(2-(pyridin-4-yl)prop-1-enyl)-1H-pyrido[4,3-b]indole]: the “5-HT2A Agonist % Activation (Aequorin)” value came to 0.62% in data set [1] (Agonist concentration 10 nM); 0.26% in data set [1] (Agonist concentration 30 nM); 0.27% in data set [1] (Agonist concentration 100 nM); 0.18% in data set [1] (Agonist concentration 300 nM); 0.11% in data set [1] (Agonist concentration 1000 nM); 0.04% in data set [1] (Agonist concentration 3000 nM). Further, the entries for the “5-HT2A Agonist % Activation (Aequorin)” value in data set [1] (Agonist concentration 10000 nM) and in data set [1] (Agonist concentration 30000 nM) were 0.02% and 0.49%, respectively. In addition, the inhibition at 0.005 µM in data set [1] (setting [3]) was found to be 73%; in data set [2], 84.1%. The inhibition at 0.05 µM is 98.5% in data set [1] (setting [3]) and 94.7% in data set [2]. The inhibition at 0.5 µM in data set [1] (setting [3]) was 98.4%; in data set [2], 93.7%. Besides, the inhibition at 5 µM in data set [1] (setting [3]) is 98.5%; in data set [2], 100%. The inhibition at 15 µM turned out to be 97.6% in data set [1] (setting [3]) and 102% in data set [2]. For the same molecule, the inhibition at […] was determined as 91.7% in data set [2] (antagonist concentration 15 nM), 94% in data set [2] (setting [4]) and 100% in data set [2] (setting [5]). The “PCP-induced decrease of social interaction” value with Sprague Dawley rats (1 mg/kg p.o., 30 min prior to test) is “fully reversed”. Besides, in the data set on Sprague Dawley rats (3 mg/kg p.o.), the “sedation in the home cage during pretreatment time” value is “Mild sedation”. For the same molecule, in the data set with Sprague Dawley rats (0.3 and 3 mg/kg p.o., did not reach control levels (partial reversal)), the “deficits in social interaction time induced by chronic PCP” value is “significantly attenuated”.

For the molecule `C/C(=C\n1c2c(c3cc(Cl)ccc31)CN(C)CC2)c1ccc(F)cc1` [Compound 83, (E)-8-chloro-5-(2-(4-fluorophenyl)prop-1-enyl)-2,3,4,5-tetrahydro-2-methyl-1H-pyrido[4,3-b]indole], the inhibition at 0.005 µM was 85.4% in data set [1] (CHO-K1, Antagonist concentration 5 nM, read-out: 5-HT2A Antagonist % Inhibition (Aequorin)) and 75.5% in data set [2]. Moreover, the inhibition at […] in data set [1] (CHO-K1, Antagonist concentration 15 nM) came out at 96.6%; in data set [1] (CHO-K1, Antagonist concentration 150 nM), 98.7%; in data set [1] (CHO-K1, Antagonist concentration 1500 nM) it was 98.9%; in data set [2] (antagonist concentration 15 nM) it was 97.8%; in data set [2] (setting [4]) it was 104%; in data set [2] (setting [5]), 107%. Moreover, the inhibition at 0.05 µM amounted to 98.5% in data set [1] (CHO-K1, Antagonist concentration 50 nM, read-out: 5-HT2A Antagonist % Inhibition (Aequorin)) and 98.2% in data set [2]. The inhibition at 0.5 µM was 98.8% in data set [1] (CHO-K1, Antagonist concentration 500 nM, read-out: 5-HT2A Antagonist % Inhibition (Aequorin)) and 106% in data set [2]. In addition, the inhibition at 5 µM in data set [1] (CHO-K1, Antagonist concentration 5000 nM, read-out: 5-HT2A Antagonist % Inhibition (Aequorin)) was determined as 97.8%; in data set [2], 106%. For the same molecule, the inhibition at 15 µM in data set [1] (CHO-K1, Antagonist concentration 15000 nM, read-out: 5-HT2A Antagonist % Inhibition (Aequorin)) is 97%; in data set [2], 111%.

Take `C/C(=C\n1c2c(c3cc(C)ccc31)CN(C)CC2)c1ccncc1` [Compound 88, (E)-2,3,4,5-tetrahydro-2,8-dimethyl-5-(2-(pyridin-4-yl)prop-1-enyl)-1H-pyrido[4,3-b]indole]: the “PCP-induced decrease of social interaction time” value with Sprague Dawley rats (0.3, 1 and 3 mg/kg p.o., 30 min prior to test) is given as “attenuated”.
